In ChEMBL document CHEMBL1811855, “Xylarenones C-E from an endophytic fungus isolated from Alibertia macrophylla” (J Nat Prod, 2011):

Tests used:
[1] = Inhibition of pepsin from porcine gastric mucosa using Arg-Glu-(EDANS)- Ser-Gln-Asn-Tyr-Pro-Ile-Val-Gln-Lys-(DALBCYL)-Arg fluorogenic substrate preincubated for 1 hr measured after 1 hr at 1 min interval by fluorescence assay; parameters: species or system Sus scrofa
[2] = molecular target: T1, Proprotein convertase subtilisin/kexin type 7 (Homo sapiens) (UniProt Q16549); experiment: Inhibition of recombinant type 8 subtilisin using Arg-Glu-(EDANS)- Ser-Gln-Asn-Tyr-Pro-Ile-Val-Gln-Lys-(DALBCYL)-Arg fluorogenic substrate at 1 ug/ml preincubated for 1 hr measured after 1 hr at 1 min interval by fluorescence assay
T1 sequence (whole entry): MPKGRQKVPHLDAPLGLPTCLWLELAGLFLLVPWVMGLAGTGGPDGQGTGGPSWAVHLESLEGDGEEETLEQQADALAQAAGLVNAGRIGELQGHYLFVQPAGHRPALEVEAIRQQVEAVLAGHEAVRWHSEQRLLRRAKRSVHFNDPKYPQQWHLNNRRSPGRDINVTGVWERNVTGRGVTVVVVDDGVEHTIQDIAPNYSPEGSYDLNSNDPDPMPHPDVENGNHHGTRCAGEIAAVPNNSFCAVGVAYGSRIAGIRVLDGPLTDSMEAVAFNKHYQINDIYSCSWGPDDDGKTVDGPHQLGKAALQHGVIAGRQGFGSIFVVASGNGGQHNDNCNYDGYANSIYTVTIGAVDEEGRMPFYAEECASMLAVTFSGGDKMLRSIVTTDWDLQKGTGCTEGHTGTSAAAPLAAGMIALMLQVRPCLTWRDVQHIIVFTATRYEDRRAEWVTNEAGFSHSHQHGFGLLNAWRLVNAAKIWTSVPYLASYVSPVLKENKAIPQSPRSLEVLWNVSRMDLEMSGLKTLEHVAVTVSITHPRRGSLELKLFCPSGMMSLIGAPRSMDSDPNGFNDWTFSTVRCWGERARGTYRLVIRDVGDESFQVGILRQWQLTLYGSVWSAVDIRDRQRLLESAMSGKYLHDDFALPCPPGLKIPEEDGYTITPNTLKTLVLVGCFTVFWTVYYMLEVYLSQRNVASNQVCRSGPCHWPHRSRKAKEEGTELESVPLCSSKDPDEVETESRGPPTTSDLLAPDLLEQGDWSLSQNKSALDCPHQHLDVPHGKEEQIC

[3] = molecular target: T1, Proprotein convertase subtilisin/kexin type 7 (Homo sapiens); experiment: Inhibition of recombinant type 8 subtilisin using Arg-Glu-(EDANS)- Ser-Gln-Asn-Tyr-Pro-Ile-Val-Gln-Lys-(DALBCYL)-Arg fluorogenic substrate at 0.1 ug/ml preincubated for 1 hr measured after 1 hr at 1 min interval by fluorescence assay
[4] = molecular target: T1, Proprotein convertase subtilisin/kexin type 7 (Homo sapiens); experiment: Inhibition of recombinant type 8 subtilisin using Arg-Glu-(EDANS)- Ser-Gln-Asn-Tyr-Pro-Ile-Val-Gln-Lys-(DALBCYL)-Arg fluorogenic substrate at 0.01 ug/ml preincubated for 1 hr measured after 1 hr at 1 min interval by fluorescence assay
[5] = molecular target: T1, Proprotein convertase subtilisin/kexin type 7 (Homo sapiens); experiment: Inhibition of recombinant type 8 subtilisin using Arg-Glu-(EDANS)- Ser-Gln-Asn-Tyr-Pro-Ile-Val-Gln-Lys-(DALBCYL)-Arg fluorogenic substrate at 0.001 ug/ml preincubated for 1 hr measured after 1 hr at 1 min interval by fluorescence assay

| Compound | IC50 [1] [µM] | inhibition [2] [%] | inhibition [3] [%] | inhibition [4] [%] | inhibition [5] [%] |
| --- | --- | --- | --- | --- | --- |
| C=C(CO)[C@@]12O[C@@H]1[C@@]1(C)C(=CC2=O)[C@H](OC(=O)C(O)(CO)CC(C)CC(C)C(C)O)CC[C@@H]1C (stereo partly drawn) [XYLARENONE E] | 127 | < 10 | < 10 | < 10 | < 10 |
| C=C(CO)[C@@]12O[C@@H]1[C@@]1(C)C(=CC2=O)[C@H](OC(=O)C(C)CC(C)CC(C)CC)CC[C@@H]1C (stereo partly drawn) [XYLARENONE C] | 0.288 | – | – | – | – |
| C=C(CO)[C@@]12O[C@@H]1[C@@]1(C)C(=CC2=O)[C@H](O)CC[C@@H]1C [XYLARENONE A] | 2.43 | < 10 | < 10 | < 10 | < 10 |
| O=c1oc2ccccc2c(O)c1Cc1c(O)c2ccccc2oc1=O [DICUMAROL] | 4.57 | – | – | – | – |
| CC(=O)CC(c1ccccc1)c1c(O)c2ccccc2oc1=O (stereo not drawn) [WARFARIN] | 0.00832 | – | – | – | – |
| C=C(CO)[C@@]12O[C@@H]1[C@@]1(C)C(=CC2=O)[C@H](OC(=O)C(O)(CO)CC(C)CC(C)CC)CC[C@@H]1C (stereo partly drawn) [XYLARENONE D] | 115 | < 10 | < 10 | < 10 | < 10 |
